Data published in ChEMBL document CHEMBL1201862, “PubChem BioAssay data set” (2004).
Active and inactive are the calls of the source.

Tests used:
Paired box protein Pax-8 = Paired box protein Pax-8 (Homo sapiens, UniProt Q06710); assay: PAX8 transcriptional activity inhibition in RMG-I – RMG-I cells, luciferase, cherry-pick, dose response (AID 687027); format: functional, cell-based;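 also: luciferase reporter driven by Pax8 target thyroperoxidase promoter measured by SteadyGlo luminescence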
[1] = OVCAR-3 cell viability loss – plate reader, dry powder samples, PAX8 inhibitor project, dose response (AID 743044); format: functional, cell-based
[2] = general mammalian cell viability loss – activator set, cherry-pick, cytotoxicity control for miR-122 modulator project, dose response (AID 720690); format: functional, cell-based;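 also: HEK293T human cells scored for general mammalian cytotoxicity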
[3] = OVCAR8 cell viability loss – plate reader, dry powder samples, PAX8 project, dose response (AID 743197); format: functional, cell-based; conditions: OVCAR-8
[4] = T. cruzi growth inhibition in host cells, dose response, cell-based, plate reader, dry powder, set 2 (AID 652275); format: functional
Protein Tat = target: T1, Protein Tat (Human immunodeficiency virus type 1 group M subtype B (isolate HXB2)(HIV-1), UniProt P04608); format: functional;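 also: tat binding to TAR RNA read out by fluorescence polarization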
T1 sequence (P04608 whole entry): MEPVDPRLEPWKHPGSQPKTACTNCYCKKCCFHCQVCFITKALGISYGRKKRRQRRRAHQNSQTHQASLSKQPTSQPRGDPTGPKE

[5] = target: T2, Long-chain-fatty-acid--AMP ligase FadD28 (Mycobacterium tuberculosis, UniProt P9WQ59); assay: Fluorescence polarization aasay to screen for inhibitors that compete for the binding of FadD28 to a bisubstrate Measured in Biochemical System Using Plate Reader - 2147-01_Inhibitor_Dose_CherryPick_Activity.; format: functional, Mycobacterium tuberculosis H37Rv
T2 sequence (P9WQ59 whole entry): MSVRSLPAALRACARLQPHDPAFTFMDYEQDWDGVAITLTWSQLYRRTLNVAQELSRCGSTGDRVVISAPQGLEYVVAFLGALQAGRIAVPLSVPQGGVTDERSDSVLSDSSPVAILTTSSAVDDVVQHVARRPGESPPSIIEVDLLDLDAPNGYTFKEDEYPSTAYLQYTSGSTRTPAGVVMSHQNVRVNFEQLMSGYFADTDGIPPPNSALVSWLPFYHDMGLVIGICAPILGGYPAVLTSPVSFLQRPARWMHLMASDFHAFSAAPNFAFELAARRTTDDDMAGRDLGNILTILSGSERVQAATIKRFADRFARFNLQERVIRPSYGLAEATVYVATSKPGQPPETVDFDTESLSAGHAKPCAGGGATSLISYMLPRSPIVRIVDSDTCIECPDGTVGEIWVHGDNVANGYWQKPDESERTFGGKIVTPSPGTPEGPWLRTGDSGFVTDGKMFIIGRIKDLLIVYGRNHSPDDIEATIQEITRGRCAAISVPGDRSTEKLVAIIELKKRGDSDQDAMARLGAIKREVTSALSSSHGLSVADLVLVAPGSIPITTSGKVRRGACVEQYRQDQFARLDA

[6] = target: T3, RNA-binding protein pos-1 (Caenorhabditis elegans, UniProt G5EF15); assay: disruptors of C. elegans POS-1 RNA interaction – biochemical, fluorescence polarization, dose response (AID 1964);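 also: purified POS-1 fused to maltose binding protein made in E. coli; potency of compounds blocking POS-1 binding to fluorescent RNA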
T3 sequence (G5EF15 whole entry): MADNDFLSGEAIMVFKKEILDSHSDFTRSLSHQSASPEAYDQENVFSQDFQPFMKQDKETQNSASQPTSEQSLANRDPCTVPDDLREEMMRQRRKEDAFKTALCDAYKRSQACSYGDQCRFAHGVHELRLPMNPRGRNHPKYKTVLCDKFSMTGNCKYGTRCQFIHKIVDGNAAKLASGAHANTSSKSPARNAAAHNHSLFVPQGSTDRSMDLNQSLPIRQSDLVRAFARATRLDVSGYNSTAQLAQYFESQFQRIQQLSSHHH

[7] = target: T4, Zinc finger protein mex-5 (Caenorhabditis elegans, UniProt Q9XUB2); assay: potency of MEX-5 RNA-binding blockers – biochemical, C. elegans, fluorescence polarization, dose response (AID 1960)
T4 sequence (Q9XUB2 whole entry): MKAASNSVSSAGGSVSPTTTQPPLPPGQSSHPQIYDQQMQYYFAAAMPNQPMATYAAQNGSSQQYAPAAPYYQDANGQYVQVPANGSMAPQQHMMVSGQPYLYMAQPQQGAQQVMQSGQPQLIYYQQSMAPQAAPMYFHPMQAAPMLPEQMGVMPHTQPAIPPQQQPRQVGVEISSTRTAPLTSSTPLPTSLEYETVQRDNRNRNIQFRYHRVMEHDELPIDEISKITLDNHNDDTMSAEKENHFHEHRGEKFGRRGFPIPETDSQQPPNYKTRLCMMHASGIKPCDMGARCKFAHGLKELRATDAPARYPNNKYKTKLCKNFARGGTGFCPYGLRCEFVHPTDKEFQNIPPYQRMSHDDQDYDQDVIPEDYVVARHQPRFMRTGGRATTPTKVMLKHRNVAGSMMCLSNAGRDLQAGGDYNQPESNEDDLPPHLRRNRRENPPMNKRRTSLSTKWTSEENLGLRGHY

[8] = target: Arf-GAP with SH3 domain, ANK repeat and PH domain-containing protein 1 (Homo sapiens, UniProt Q9ULH1); format: functional;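 also: biochemical fluorescence polarization dose–response screen measuring inhibition of ASAP1; ASAP1 GAP domain stimulating GTP hydrolysis by truncated human ARF1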
[9] = A2780 cell killing – plate reader, dry powder samples, cytotoxicity control, dose response (AID 743046); format: functional, cell-based
[10] = general cell-killing toxicity readout – plate reader, dry powder samples, cytotoxicity control for PAX8 inhibitor project, dose response (AID 743021); format: functional, cell-based
[11] = IGROV1 cell killing – plate reader, dry powder samples, PAX8 inhibitor project, dose response (AID 743043); format: functional, cell-based; conditions: IGROV-1
Large T antigen = Large T antigen (Simian virus 40, UniProt P03070); format: functional, Betapolyomavirus macacae;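 also: Confirmatory-stage PubChem screen for compounds that inhibit SV40 T antigen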
[12] = target: T5, Small ubiquitin-related modifier 1 (Homo sapiens, UniProt P63165); assay: SUMO1 protein interaction blockers, potency – biochemical, fluorescence polarization, uHTS hits, dose response (AID 624382); format: functional; conditions: read-out: IC50_Mean
[13] = target: T5, Small ubiquitin-related modifier 1; assay: SUMO1 protein-protein binding blockers, potency – biochemical, FRET, dose response (AID 624383); format: functional; conditions: read-out: IC50_Mean
Caspase-6 = target: T6, Caspase-6 (Homo sapiens, UniProt P55212); assay: inhibition of CASP6 peptide cleavage – biochemical, VEID-R110 fluorescence, cherry-pick, dose response (AID 720632)
T6 sequence (P55212 whole entry): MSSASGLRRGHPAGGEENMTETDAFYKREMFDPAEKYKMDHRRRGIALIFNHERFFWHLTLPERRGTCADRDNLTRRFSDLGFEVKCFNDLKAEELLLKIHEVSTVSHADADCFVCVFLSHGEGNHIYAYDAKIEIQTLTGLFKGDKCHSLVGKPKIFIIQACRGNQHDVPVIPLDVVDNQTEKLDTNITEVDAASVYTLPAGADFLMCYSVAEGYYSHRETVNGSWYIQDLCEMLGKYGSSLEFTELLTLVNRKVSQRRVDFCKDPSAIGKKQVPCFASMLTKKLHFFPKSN

Sequence of Paired box protein Pax-8 (Q06710 whole entry): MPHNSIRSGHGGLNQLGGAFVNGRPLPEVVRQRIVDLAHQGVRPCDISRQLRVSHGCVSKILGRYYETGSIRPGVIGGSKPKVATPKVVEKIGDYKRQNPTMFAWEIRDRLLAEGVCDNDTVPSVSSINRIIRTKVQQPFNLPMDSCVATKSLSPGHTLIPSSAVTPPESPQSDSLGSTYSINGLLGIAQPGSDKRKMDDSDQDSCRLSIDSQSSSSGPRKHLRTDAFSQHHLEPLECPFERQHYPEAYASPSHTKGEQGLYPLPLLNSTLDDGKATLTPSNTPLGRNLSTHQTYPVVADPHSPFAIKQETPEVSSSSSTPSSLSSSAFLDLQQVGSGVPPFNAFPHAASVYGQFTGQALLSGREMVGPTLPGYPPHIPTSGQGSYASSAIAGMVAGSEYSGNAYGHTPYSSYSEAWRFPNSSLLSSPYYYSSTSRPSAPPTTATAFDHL
T5 sequence (P63165 whole entry): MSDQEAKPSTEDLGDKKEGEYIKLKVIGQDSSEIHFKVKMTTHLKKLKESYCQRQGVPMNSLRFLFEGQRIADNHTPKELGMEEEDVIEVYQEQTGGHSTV
Sequence of Large T antigen (P03070 whole entry): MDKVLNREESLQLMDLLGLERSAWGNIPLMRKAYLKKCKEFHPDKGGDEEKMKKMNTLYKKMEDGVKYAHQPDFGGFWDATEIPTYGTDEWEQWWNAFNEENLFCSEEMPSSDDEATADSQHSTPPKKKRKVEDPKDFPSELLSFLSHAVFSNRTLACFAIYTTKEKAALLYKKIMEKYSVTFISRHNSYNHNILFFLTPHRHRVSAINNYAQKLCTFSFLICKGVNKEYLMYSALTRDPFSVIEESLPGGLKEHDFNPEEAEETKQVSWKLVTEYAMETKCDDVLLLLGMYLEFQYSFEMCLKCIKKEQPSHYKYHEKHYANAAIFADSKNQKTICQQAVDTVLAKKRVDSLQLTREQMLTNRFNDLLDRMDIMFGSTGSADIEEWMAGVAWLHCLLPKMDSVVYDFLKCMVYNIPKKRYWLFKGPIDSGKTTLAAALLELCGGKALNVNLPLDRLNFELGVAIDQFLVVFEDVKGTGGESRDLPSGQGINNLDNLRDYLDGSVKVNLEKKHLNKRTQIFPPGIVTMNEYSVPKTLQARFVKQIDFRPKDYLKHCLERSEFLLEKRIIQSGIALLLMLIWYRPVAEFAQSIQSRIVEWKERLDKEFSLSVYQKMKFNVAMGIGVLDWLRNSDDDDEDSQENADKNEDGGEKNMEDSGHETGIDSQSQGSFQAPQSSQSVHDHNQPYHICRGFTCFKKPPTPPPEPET
Sequence of Arf-GAP with SH3 domain, ANK repeat and PH domain-containing protein 1 (Q9ULH1 whole entry, the tested form may be a part): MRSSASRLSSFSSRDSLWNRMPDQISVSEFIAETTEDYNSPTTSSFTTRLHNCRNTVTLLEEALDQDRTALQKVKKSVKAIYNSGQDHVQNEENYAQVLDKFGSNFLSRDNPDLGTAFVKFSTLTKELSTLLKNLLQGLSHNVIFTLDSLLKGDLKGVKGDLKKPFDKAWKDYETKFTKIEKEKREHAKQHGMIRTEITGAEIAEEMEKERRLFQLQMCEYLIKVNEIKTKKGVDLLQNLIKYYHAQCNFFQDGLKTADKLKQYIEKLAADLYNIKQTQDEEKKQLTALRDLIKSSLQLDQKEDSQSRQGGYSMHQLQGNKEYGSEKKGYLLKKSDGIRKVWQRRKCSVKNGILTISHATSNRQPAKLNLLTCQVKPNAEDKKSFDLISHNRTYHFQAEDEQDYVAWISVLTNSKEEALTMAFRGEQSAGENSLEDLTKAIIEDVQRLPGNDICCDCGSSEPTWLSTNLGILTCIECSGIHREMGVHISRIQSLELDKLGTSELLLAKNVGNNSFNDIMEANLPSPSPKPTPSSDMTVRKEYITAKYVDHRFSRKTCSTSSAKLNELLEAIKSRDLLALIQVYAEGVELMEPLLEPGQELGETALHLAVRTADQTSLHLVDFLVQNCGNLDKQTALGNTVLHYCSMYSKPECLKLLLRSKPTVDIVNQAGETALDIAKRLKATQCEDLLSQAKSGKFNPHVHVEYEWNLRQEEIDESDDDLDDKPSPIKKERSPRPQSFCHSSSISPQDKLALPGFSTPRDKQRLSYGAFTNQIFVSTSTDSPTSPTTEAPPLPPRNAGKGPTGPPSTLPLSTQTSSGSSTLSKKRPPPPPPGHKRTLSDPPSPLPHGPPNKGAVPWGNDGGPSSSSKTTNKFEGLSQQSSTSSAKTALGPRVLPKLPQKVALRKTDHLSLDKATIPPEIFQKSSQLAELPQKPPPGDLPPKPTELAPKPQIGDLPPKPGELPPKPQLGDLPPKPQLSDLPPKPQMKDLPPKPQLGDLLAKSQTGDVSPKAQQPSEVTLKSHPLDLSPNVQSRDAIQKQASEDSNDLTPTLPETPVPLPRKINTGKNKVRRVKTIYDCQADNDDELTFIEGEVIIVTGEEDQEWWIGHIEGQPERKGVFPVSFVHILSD

C[C@@H]1CN([C@@H](C)CO)S(=O)(=O)c2ccc(C#Cc3ccccc3F)cc2O[C@@H]1CN(C)C(=O)c1ccc2c(c1)OCO2
AC50 (Paired box protein Pax-8): 13.2 µM (active) | AC50 [1]: 20.5 µM (active) | AC50 [2]: 26.9 µM (active) | AC50 [3]: > 70 µM (inactive)

O=C(Cc1ccccn1)N1CCCCN2[C@@H](CO)[C@H](c3ccc(-c4ccccc4)cc3)[C@@H]2C1
AC50 [4]: 0.551 µM (active)

Cc1nccn1CC(=O)N/N=C/c1ccc(O)c(O)c1
IC50 (Protein Tat): 39 µM (inconclusive)

COc1cccc(CNC(=O)COc2cc(O)c3c(c2)OC(C)(C)CC3=O)c1
AC50 [5]: 79.7 µM (active)

Cc1cc(O)cc(O)c1C(=O)Cc1cnn(-c2ccccc2)c1
IC50 (Protein Tat): > 100 µM (inconclusive)

Cc1ccc(NC(=O)CN2C(=O)S/C(=C\c3cc(C)n(-c4cccc(C(=O)O)c4)c3C)C2=O)cc1
EC50 [6]: > 300 µM (not active) | EC50 [7]: > 300 µM (not active) | AC50 [5]: 2.03 µM (active)

COc1ccc([N+](=O)[O-])cc1NC(=O)c1ccc(-n2nc(C)cc2C)cc1
IC50 [8]: 28 µM (inactive)

O=C(Cc1cccnc1)N1CCCCN2[C@H](C1)[C@H](c1ccc(/C=C/c3ccccc3)cc1)[C@@H]2CO
AC50 (Paired box protein Pax-8): 4.42 µM (active) | AC50 [9]: 25.1 µM (active) | AC50 [1]: 5.01 µM (active) | AC50 [10]: 50.6 µM (active) | AC50 [3]: 41.2 µM (active)

O=C(C[C@@H]1CC[C@@H]2[C@H](COC[C@@H](O)CN2C(=O)Nc2ccc(Cl)c(Cl)c2)O1)NCc1ccc(Cl)cc1
AC50 (Paired box protein Pax-8): 8.87 µM (active) | AC50 [9]: 60 µM (active) | AC50 [1]: 33.5 µM (active) | AC50 [11]: 33.9 µM (active) | AC50 [3]: 53.3 µM (active)

COc1cc(/C=C2\CCc3c2nc2ccccc2c3C(=O)O)cc(OC)c1OC
EC50 [6]: 94 µM (active) | EC50 [7]: 34.8 µM (active) | IC50 (Large T antigen): 35 µM (active) | IC50 [12]: > 66.6 µM (inactive) | IC50 [13]: 12.5 µM (active) | AC50 (Caspase-6): 6.8 µM (active)

Cc1cccc(S(=O)(=O)N2CC[C@@H]3[C@H]2c2cc(C4=CCCCC4)ccc2N[C@@H]3CO)c1
AC50 (Paired box protein Pax-8): 10.8 µM (active) | AC50 [11]: 55.6 µM (active) | AC50 [3]: > 70 µM (inactive)
